Our source for the T/C values is PubChem BioAssay AID256 (DTP/NCI, 2004).

The test system of the assay is CD2F1 mice, L1210 leukemia ip, survival T/C. Put plainly: NCI In Vivo Anticancer Drug Screen. Data for tumor model L1210 Leukemia (intraperitoneal) in CD2F1 (CDF1) mice. To be noted: higher = longer survival. The method in brief: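 Activity against a transplanted murine tumor was judged by comparing the compound group with a vehicle group. The outcome in the treated animals was divided by that in the controls.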

[1] abbreviates: endpoint: mean survival time, dose: 200.0 mg/kg/injection, schedule: Q01DX009 (ip), vehicle: saline with Tween-80.
The mark [2] stands for this setting: endpoint: median survival time, dose: 200.0 mg/kg/injection, schedule: Q01DX009 (ip), vehicle: saline.
Where [3] appears, read: endpoint: mean survival time, dose: 100.0 mg/kg/injection, schedule: Q01DX009 (ip), vehicle: saline with Tween-80.
Where [4] appears, read: endpoint: mean survival time, dose: 400.0 mg/kg/injection, schedule: Q01DX009 (ip), vehicle: saline with Tween-80.

Values joined by “and” are separate entries in the source; they are usually repeats but may differ in a detail not shown here. Equal values may be shown once. Inconclusive results and toxic doses are left out.

For `Nc1nc(F)nc2c1ncn2C1OC(COP(=O)(O)O)C(O)C1O` (centres undefined), the T/C is, setting by setting: (endpoint: mean survival time, dose: 6.25 mg/kg/injection, schedule: Q01DX009 (ip), vehicle: saline) 98 % of control; (endpoint: mean survival time, dose: 12.5 mg/kg/injection, schedule: Q01DX009 (ip), vehicle: saline) 104 % of control; (endpoint: mean survival time, dose: 25.0 mg/kg/injection, schedule: Q01DX009 (ip), vehicle: saline) 118 % of control; (endpoint: mean survival time, dose: 50.0 mg/kg/injection, schedule: Q01DX009 (ip), vehicle: saline) 114 % of control; (endpoint: mean survival time, dose: 60.0 mg/kg/injection, schedule: Q01DX009 (ip), vehicle: saline) 124 % of control; (endpoint: mean survival time, dose: 88.98 mg/kg/injection, schedule: Q01DX009 (ip), vehicle: saline with Tween-80) 174 % of control. In addition, the T/C was 182 % of control (endpoint: mean survival time, dose: 90.0 mg/kg/injection, schedule: Q01DX009 (ip), vehicle: saline); 171 % of control (endpoint: mean survival time, dose: 100.0 mg/kg/injection, schedule: Q01DX009 (ip), vehicle: saline); 183 % of control (endpoint: mean survival time, dose: 133.0 mg/kg/injection, schedule: Q01DX009 (ip), vehicle: saline); 244 % of control (endpoint: mean survival time, dose: 133.4 mg/kg/injection, schedule: Q01DX009 (ip), vehicle: saline with Tween-80); 180 % of control (endpoint: mean survival time, dose: 133.4 mg/kg/injection, schedule: Q01DX009 (ip), vehicle: saline); 288 % of control and 156 % of control (endpoint: mean survival time, dose: 135.0 mg/kg/injection, schedule: Q01DX009 (ip), vehicle: saline). In addition, the T/C runs as follows: under setting [1], 100 % of control; (endpoint: mean survival time, dose: 200.0 mg/kg/injection, schedule: Q01DX009 (ip), vehicle: saline) 231 % of control [middle of 4 runs]; (endpoint: mean survival time, dose: 219.0 mg/kg/injection, schedule: Q01DX009 (ip), vehicle: saline) 362 % of control; (endpoint: mean survival time, dose: 292.0 mg/kg/injection, schedule: Q01DX009 (ip), vehicle: saline) 98 % of control; (endpoint: median survival time, dose: 32.0 mg/kg/injection, schedule: Q01DX009 (ip), vehicle: saline) 114 % of control and 112 % of control; (endpoint: median survival time, dose: 40.0 mg/kg/injection, schedule: Q03HX024 (ip), vehicle: sodium bicarbonate) 167 % of control. The T/C reads like this: (endpoint: median survival time, dose: 47.0 mg/kg/injection, schedule: Q01DX009 (ip), vehicle: saline) 114 % of control and 111 % of control; (endpoint: median survival time, dose: 56.0 mg/kg/injection, schedule: Q03HX024 (ip), vehicle: sodium bicarbonate) 193 % of control; (endpoint: median survival time, dose: 85.0 mg/kg/injection, schedule: Q03HX024 (ip), vehicle: sodium bicarbonate) 168 % of control; (endpoint: median survival time, dose: 90.0 mg/kg/injection, schedule: Q01DX009 (ip), vehicle: saline) 169 % of control and 185 % of control; (endpoint: median survival time, dose: 98.8 mg/kg/injection, schedule: Q01DX009 (ip), vehicle: saline) 178 % of control; (endpoint: median survival time, dose: 100.0 mg/kg/injection, schedule: Q01DX001 (oral), vehicle: sodium bicarbonate) 101 % of control. Besides, the T/C is 111 % of control (endpoint: median survival time, dose: 100.0 mg/kg/injection, schedule: Q01DX005 (oral), vehicle: sodium bicarbonate); 172 % of control (endpoint: median survival time, dose: 105.0 mg/kg/injection, schedule: Q01DX009 (ip), vehicle: saline); 163 % of control (endpoint: median survival time, dose: 110.0 mg/kg/injection, schedule: Q03HX008 (ip), vehicle: sodium bicarbonate); 159 % of control (endpoint: median survival time, dose: 111.0 mg/kg/injection, schedule: Q01DX009 (ip), vehicle: saline); 175 % of control (endpoint: median survival time, dose: 118.0 mg/kg/injection, schedule: Q01DX005 (ip), vehicle: sodium bicarbonate); 625 % of control (endpoint: median survival time, dose: 125.0 mg/kg/injection, schedule: Q03HX024 (ip), vehicle: sodium bicarbonate). Also, the T/C by setting is: (endpoint: median survival time, dose: 134.0 mg/kg/injection, schedule: Q01DX009 (ip), vehicle: saline) 196 % of control and 202 % of control; (endpoint: median survival time, dose: 148.0 mg/kg/injection, schedule: Q01DX009 (ip), vehicle: saline) 235 % of control; (endpoint: median survival time, dose: 157.0 mg/kg/injection, schedule: Q01DX009 (ip), vehicle: saline) 182 % of control and 283 % of control; (endpoint: median survival time, dose: 167.0 mg/kg/injection, schedule: Q01DX009 (ip), vehicle: saline) 207 % of control; (endpoint: median survival time, dose: 170.0 mg/kg/injection, schedule: Q03HX008 (ip), vehicle: sodium bicarbonate) 190 % of control; (endpoint: median survival time, dose: 175.0 mg/kg/injection, schedule: Q01DX009 (ip), vehicle: saline) 207 % of control. In addition, the T/C is, setting by setting: (endpoint: median survival time, dose: 177.0 mg/kg/injection, schedule: Q01DX005 (ip), vehicle: sodium bicarbonate) 216 % of control; (endpoint: median survival time, dose: 177.0 mg/kg/injection, schedule: Q01DX005 (iv), vehicle: sodium bicarbonate) 171 % of control; (endpoint: median survival time, dose: 200.0 mg/kg/injection, schedule: Q01DX001 (oral), vehicle: sodium bicarbonate) 97 % of control; under setting [2], 219 % of control and 198 % of control; (endpoint: median survival time, dose: 200.0 mg/kg/injection, schedule: Q04DX003 (ip), vehicle: sodium bicarbonate) 152 % of control; (endpoint: median survival time, dose: 222.0 mg/kg/injection, schedule: Q01DX009 (ip), vehicle: saline) 297 % of control. Further, the T/C reads like this: (endpoint: median survival time, dose: 225.0 mg/kg/injection, schedule: Q01DX009 (ip), vehicle: saline) 304 % of control; (endpoint: median survival time, dose: 234.0 mg/kg/injection, schedule: Q01DX009 (ip), vehicle: saline) 296 % of control; (endpoint: median survival time, dose: 250.0 mg/kg/injection, schedule: Q01DX009 (ip), vehicle: saline) 197 % of control and 284 % of control; (endpoint: median survival time, dose: 250.0 mg/kg/injection, schedule: Q03HX008 (ip), vehicle: sodium bicarbonate) 198 % of control; (endpoint: median survival time, dose: 266.0 mg/kg/injection, schedule: Q01DX001 (ip), vehicle: sodium bicarbonate) 115 % of control; (endpoint: median survival time, dose: 266.0 mg/kg/injection, schedule: Q01DX005 (ip), vehicle: sodium bicarbonate) 222 % of control. Besides, the T/C is, setting by setting: (endpoint: median survival time, dose: 266.0 mg/kg/injection, schedule: Q01DX005 (iv), vehicle: sodium bicarbonate) 195 % of control; (endpoint: median survival time, dose: 300.0 mg/kg/injection, schedule: Q04DX003 (ip), vehicle: sodium bicarbonate) 166 % of control; (endpoint: median survival time, dose: 375.0 mg/kg/injection, schedule: Q01DX009 (ip), vehicle: saline) 151 % of control; (endpoint: median survival time, dose: 400.0 mg/kg/injection, schedule: Q01DX001 (iv), vehicle: sodium bicarbonate) 120 % of control; (endpoint: median survival time, dose: 400.0 mg/kg/injection, schedule: Q01DX001 (oral), vehicle: sodium bicarbonate) 100 % of control; (endpoint: median survival time, dose: 400.0 mg/kg/injection, schedule: Q01DX005 (iv), vehicle: sodium bicarbonate) 91 % of control. The T/C runs as follows: (endpoint: median survival time, dose: 450.0 mg/kg/injection, schedule: Q04DX003 (ip), vehicle: sodium bicarbonate) 212 % of control; (endpoint: median survival time, dose: 500.0 mg/kg/injection, schedule: Q01DX009 (ip), vehicle: saline) 94 % of control; (endpoint: median survival time, dose: 670.0 mg/kg/injection, schedule: Q04DX003 (ip), vehicle: sodium bicarbonate) 222 % of control; (endpoint: median survival time, dose: 800.0 mg/kg/injection, schedule: Q01DX001 (oral), vehicle: sodium bicarbonate) 103 % of control; (endpoint: median survival time, dose: 800.0 mg/kg/injection, schedule: Q01DX005 (oral), vehicle: sodium bicarbonate) 150 % of control; (endpoint: median survival time, dose: 1600.0 mg/kg/injection, schedule: Q01DX001 (oral), vehicle: sodium bicarbonate) 113 % of control. Where the note is “endpoint: median survival time, dose: 1600.0 mg/kg/injection, schedule: Q01DX005 (oral), vehicle: sodium bicarbonate”, the T/C is 175 % of control.
Consider `OCC(O)C(O)C(OC1OC(CO)C(O)C(O)C1O)C(O)CO` (centres undefined), for which the T/C was 97 % of control (endpoint: mean survival time, dose: 50.0 mg/kg/injection, schedule: Q01DX009 (ip), vehicle: saline with Tween-80); 109 % of control under setting [3]; 106 % of control under setting [1].
As to `O=C1CC(=O)NC(=O)N1`, the T/C reads like this: under setting [3], 102 % of control; under setting [1], 97 % of control; under setting [4], 96 % of control.
For `COc1ccc(C(O)(c2ccc(OC)cc2)C(c2ccccc2)c2ccccc2)cc1`, in that order: 100 % of control, 96 % of control and 97 % of control.
Turning to `O=C(O)c1ccccc1C(=O)NCc1ccccn1`, the T/C is, setting by setting: (endpoint: mean survival time, dose: 50.0 mg/kg/injection, schedule: Q01DX009 (ip), vehicle: Klucel (hydroxypropylcellulose) (HPC)) 90 % of control; (endpoint: mean survival time, dose: 100.0 mg/kg/injection, schedule: Q01DX009 (ip), vehicle: Klucel (hydroxypropylcellulose) (HPC)) 97 % of control; (endpoint: mean survival time, dose: 200.0 mg/kg/injection, schedule: Q01DX009 (ip), vehicle: Klucel (hydroxypropylcellulose) (HPC)) 101 % of control.
With `CCCCCCCCCCCCN(CN1C(=O)c2ccccc2C1=O)CN1C(=O)c2ccccc2C1=O`, the T/C by setting is: under setting [3], 92 % of control; under setting [4], 86 % of control.
Regarding `O=C(Nc1nccs1)C(F)(F)F`, the T/C (endpoint: median survival time, dose: 50.0 mg/kg/injection, schedule: Q01DX009 (ip), vehicle: saline) was 100 % of control; the T/C (endpoint: median survival time, dose: 100.0 mg/kg/injection, schedule: Q01DX009 (ip), vehicle: saline) was 108 % of control; the T/C under setting [2] was 108 % of control; the T/C (endpoint: median survival time, dose: 400.0 mg/kg/injection, schedule: Q01DX009 (ip), vehicle: saline) was 109 % of control.
